Laboratory results: patent publication US10030004B2, “Compounds and methods of use” (Medivation Technologies LLC, priority 2014, dated 2018)
Like-named read-outs stand apart in the source and are kept apart here.

Assays:
[1] = Pharmacokinetics and bioavailability in male mice after a single dose; format: in vivo; conditions: for AUC(0-t) / Cmax / clearance / half-life / Tmax / bioavailability: mouse, plasma; for half-life: read-out: Terminal t1/2 (converted)
[2] = Plasma and brain concentrations at 0.5 and 1 h in mice; format: in vivo; conditions: for concentration at 0.5 h / concentration at 1 h: male, mouse
ALK2 (ACVR1) = ALK2 (ACVR1) (Homo sapiens (Human), UniProt Q04771); assay: In vitro kinase assay, ALK2; format: biochemical; conditions: read-out: Inhibition of ALK2 IC50
[3] = brain, 2 mg/kg, IV, 0.5 h, read-out: Brain Concentration
[4] = brain, 2 mg/kg, IV, 1 h, read-out: Brain Concentration
[5] = plasma, 2 mg/kg, IV, 0.5 h, read-out: Plasma Concentration
[6] = plasma, 2 mg/kg, IV, 1 h, read-out: Plasma Concentration
[7] = plasma, 10 mg/kg, PO, 0.5 h, read-out: Plasma Concentration
[8] = plasma, 10 mg/kg, PO, 1 h, read-out: Plasma Concentration

Sequence of ALK2 (ACVR1) (Q04771 21-509): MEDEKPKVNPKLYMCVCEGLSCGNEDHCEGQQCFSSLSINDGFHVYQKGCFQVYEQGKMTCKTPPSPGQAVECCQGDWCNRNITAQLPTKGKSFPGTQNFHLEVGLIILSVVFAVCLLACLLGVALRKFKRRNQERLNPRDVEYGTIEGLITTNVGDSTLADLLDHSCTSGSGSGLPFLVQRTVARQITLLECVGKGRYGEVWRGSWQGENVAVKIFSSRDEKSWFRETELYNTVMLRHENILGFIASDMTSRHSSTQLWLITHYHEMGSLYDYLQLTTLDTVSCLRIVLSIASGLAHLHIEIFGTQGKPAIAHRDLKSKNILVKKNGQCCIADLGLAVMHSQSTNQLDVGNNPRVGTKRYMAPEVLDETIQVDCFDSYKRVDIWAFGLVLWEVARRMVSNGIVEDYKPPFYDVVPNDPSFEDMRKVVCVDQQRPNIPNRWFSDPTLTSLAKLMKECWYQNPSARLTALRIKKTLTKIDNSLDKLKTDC

Row | SMILES | V ([1]; intravenous, 2 mg/kg) [L/kg] | AUC(0-t) ([1]; intravenous, 2 mg/kg) [µM·h] | Cmax ([1]; intravenous, 2 mg/kg) [nM] | half-life ([1]; intravenous, 2 mg/kg) [h] | AUC(0-t) ([1]; oral, 10 mg/kg) [µM·h] | Cmax ([1]; oral, 10 mg/kg) [nM] | Tmax ([1]; oral, 10 mg/kg) [h] | bioavailability ([1]; oral, 10 mg/kg) [%] | further results
1 | CC(C)c1cnc(-c2cc(Cl)ccc2F)cc1Nc1ncncc1C(=O)NC[C@H](C)O (single isomer, unassigned) [12a] | 2.80 | 3.69 | 2150 | 1.63 | 14.5 | 4280 | 0.5 | 78.3 | clearance ([1]; intravenous, 2 mg/kg): 19.8 mL/min/kg; half-life ([1]; oral, 10 mg/kg): 1.72 h
2 | CC(C)c1cnc(-c2cc(Cl)ccc2F)cc1Nc1ccncc1C(=O)NCCN [compound 19, N-(2-aminoethyl)-4-[[2-(5-chloro-2-fluoro-phenyl)-5-isopropyl-4-pyridyl]amino]pyridine-3-carboxamide] | 21.1 | 1.19 | 520 | – | 0.927 | 198 | 1 | 15.5 | Brain Concentration ([2]; PO, 0.5 h): BLQ; Brain Concentration ([2]; PO, 1 h): BLQ; concentration at 0.5 h [2, 3]: 4 nM; concentration at 1 h [2, 4]: 3 nM; concentration at 0.5 h [2, 5]: 280 nM; concentration at 1 h [2, 6]: 183 nM; concentration at 0.5 h [2, 7]: 164 nM; concentration at 1 h [2, 8]: 198 nM
3 | CC(C)c1cnc(-c2cc(Cl)ccc2F)cc1Nc1ccncc1C(=O)NC(CO)CO [compound 22, 4-[[2-(5-chloro-2-fluoro-phenyl)-5-isopropyl-4-pyridyl]amino]-N-[2-hydroxy-1-(hydroxymethyl)ethyl]pyridine-3-carboxamide] | 2.43 | 3.77 | 2460 | 1.53 | 16.2 | 7070 | 0.5 | 86.6 | concentration at 0.5 h [2, 3]: 7 nM; concentration at 1 h [2, 4]: 5 nM; concentration at 0.5 h ([2]; brain, 10 mg/kg, PO, 0.5 h, read-out: Brain Concentration): 20 nM; concentration at 1 h ([2]; brain, 10 mg/kg, PO, 1 h, read-out: Brain Concentration): 15 nM; concentration at 0.5 h [2, 5]: 1690 nM; concentration at 1 h [2, 6]: 967 nM; concentration at 0.5 h [2, 7]: 7070 nM; concentration at 1 h [2, 8]: 3530 nM
4 | CC(C)c1cnc(-c2cc(Cl)ccc2F)cc1Nc1ncnc2[nH]ccc12 [compound 35, 2-(5-chloro-2-fluorophenyl)-5-(propan-2-yl)-N-{7H-pyrrolo[2,3-d]pyrimidin-4-yl}pyridin-4-amine] | – | – | – | – | – | – | – | – | IC50 (ALK2 (ACVR1)): 5.45 µM
5 | CC(C)c1cnc(-c2cc(Cl)ccc2F)cc1Nc1ccncc1C(=O)NC[C@H](C)O (single isomer, unassigned) [2a] | 4.14 | 1.19 | 544 | – | 5.25 | 1570 | 0.5 | 88 | concentration at 0.5 h ([2]; brain, IV (2 mg/kg), 0.5 h, read-out: Brain concentration): 73.2 ng/mL; concentration at 1 h ([2]; brain, IV (2 mg/kg), 1 h, read-out: Brain concentration): 82.4 ng/mL; concentration at 0.5 h ([2]; brain, PO (10 mg/kg), 0.5 h, read-out: Brain concentration): 202 ng/mL; concentration at 1 h ([2]; brain, PO (10 mg/kg), 1 h, read-out: Brain concentration): 114 ng/mL; concentration at 0.5 h ([2]; plasma, IV (2 mg/kg), 0.5 h, read-out: Plasma concentration): 310 ng/mL; concentration at 1 h ([2]; plasma, IV (2 mg/kg), 1 h, read-out: Plasma concentration): 366 ng/mL; concentration at 0.5 h ([2]; plasma, PO (10 mg/kg), 0.5 h, read-out: Plasma concentration): 1570 ng/mL; concentration at 1 h ([2]; plasma, PO (10 mg/kg), 1 h, read-out: Plasma concentration): 905 ng/mL
6 | CC(=O)NCCNC(=O)c1cnccc1Nc1cc(-c2cc(Cl)ccc2F)ncc1C(C)C [compound 14, N-(2-acetamidoethyl)-4-[[2-(5-chloro-2-fluoro-phenyl)-5-isopropyl-4-pyridyl]amino]pyridine-3-carboxamide] | 3.86 | 1.57 | 3010 | – | 2.54 | 1880 | 0.5 | 32.5 | –
7 | CCc1cnc(-c2cc(Cl)ccc2F)cc1Nc1ccncc1C(=O)NC[C@H](C)O (single isomer, unassigned) [11a] | – | 3.15 | 3610 | 1.02 | 9.79 | 3480 | 0.25 | 62.2 | clearance ([1]; intravenous, 2 mg/kg): 24.7 mL/min/kg; half-life ([1]; oral, 10 mg/kg): 1.65 h
8 | C=C(C)c1cnc(-c2cc(Cl)ccc2F)cc1Nc1ncncc1C(=O)NC[C@H](C)O [4a, (S)-4-(2-(5-chloro-2-fluorophenyl)-5-(prop-1-en-2-yl)pyridin-4-ylamino)-N-(2-hydroxypropyl)pyrimidine-5-carboxamide] | – | – | – | – | – | – | – | – | IC50 (ALK2 (ACVR1); 10 μM ATP): 10.6 µM
